Test results published in patent US20240287046A1, “COMPOUNDS AND RADIOLIGANDS FOR TARGETING NEUROTENSIN RECEPTOR AND USES THEREOF” (Full-Life Technologies HK Limited, priority 2022, published 2024).

Test system: ASPC-1 tumor-bearing mice
Assay: Biodistribution of radionuclide labeled complexes in ASPC-1 tumor-bearing mice
Assay type: in vivo, BALB/c nude mice
Details: for ratio of tumor AUC verse normal organ AUC: compared to ^177Lu—C2
Procedure: The BALB/c nude mice (Charles River, Beijing) were utilized to establish the xenografted model for biodistribution study. All animal care and experimental procedure were performed by following the animal protocols approved by the ethics committee of China Institute of Radiation Protection.
Briefly, each mouse was inoculated with approximately 4×10^6 ASPC-1 cells (human pancreatic cancer cell line) or HT-29 cells (human colorectal adenocarcinoma cell line) expressing human NTSR-1 by subcutaneous injection at rear flank. After inoculation, the xenografted tumors were allowed to grow for ˜2-4 weeks till the tumor weight reached to about 0.05 to 0.50 g (0.20 g in average).
Biodistribution studies were performed by administrating the radionuclide labeled test compound at a dose of ˜30-50 μCi (100 μL in 0.9% NaCl, ˜1.11-1.85 MBq, with specific activity 30-250 μCi/nmol) to each animal through tail vein injection.
At different time points after the administration, the mice treated with each compound were euthanized. The tissues and organs of the animals in each group were collected, excised, weighed, and analyzed in a PerkinElmer 2480 WIZARD2γ counter, and the percent injected dose (% ID) and % ID/g of each organ or tissue were calculated.

Row | Structure (SMILES) | % ID/g (4 h) Blood | % ID/g (24 h) Blood | % ID/g (4 h) Femur | % ID/g (24 h) Femur | % ID/g (4 h) Heart | % ID/g (24 h) Heart | % ID/g (4 h) Intestine | % ID/g (24 h) Intestine | % ID/g (4 h) Kidney | % ID/g (24 h) Kidney | % ID/g (4 h) Liver | % ID/g (24 h) Liver | % ID/g (4 h) Lung | % ID/g (24 h) Lung | % ID/g (4 h) Muscle | % ID/g (24 h) Muscle | % ID/g (4 h) Pancreas | % ID/g (24 h) Pancreas | % ID/g (4 h) Spleen | % ID/g (24 h) Spleen | other results
1 | COc1cccc(OC)c1-c1cc(C(=O)NC2(C(=O)O)C3CC4CC(C3)CC2C4)nn1-c1ccc(SCCCN(C)CCCN(C)C(=O)CN2CCN(CC(=O)[O-])CCN(CC(=O)[O-])CCN(CC(=O)[O-])CC2)cc1C(C)C.[177Lu+3] (stereo not drawn) [^177Lu-I-8] | 6.25 ± 1.53 % ID/g | 0.23 ± 0.12 % ID/g | 0.89 ± 0.74 % ID/g | 0.4 ± 0.16 % ID/g | 2.39 ± 0.51 % ID/g | 0.5 ± 0.12 % ID/g | 3.51 ± 1.14 % ID/g | 1.00 ± 0.34 % ID/g | 3.09 ± 1.79 % ID/g | 1.47 ± 1.07 % ID/g | 7.4 ± 2.9 % ID/g | 1.86 ± 0.97 % ID/g | 2.92 ± 2.09 % ID/g | 0.55 ± 0.34 % ID/g | 0.54 ± 0.28 % ID/g | 0.34 ± 0.14 % ID/g | 0.53 ± 0.09 % ID/g | 0.6 ± 0.2 % ID/g | 0.71 ± 0.16 % ID/g | 1.22 ± 0.22 % ID/g | % ID/g (4 h) Stomach: 1.74 ± 1.36 % ID/g; % ID/g (24 h) Stomach: 0.69 ± 0.46 % ID/g; % ID/g (4 h) Tumor: 16.7 ± 10.49 % ID/g; % ID/g (24 h) Tumor: 26.12 ± 10.63 % ID/g
2 | COc1cccc(OC)c1-c1cc(C(=O)NC2(C(=O)O)C3CC4CC(C3)CC2C4)nn1-c1ccc(NCCOCCOCCNC(=O)CN2CCN(CC(=O)[O-])CCN(CC(=O)[O-])CCN(CC(=O)[O-])CC2)cc1C(C)C.[177Lu+3] (stereo not drawn) [^177Lu-I-10] | 0.93 ± 0.29 % ID/g | 0.04 ± 0.00 % ID/g | 0.23 ± 0.06 % ID/g | 0.04 ± 0.02 % ID/g | 0.41 ± 0.13 % ID/g | 0.04 ± 0.02 % ID/g | 1.86 ± 0.58 % ID/g | 0.14 ± 0.01 % ID/g | 3.02 ± 0.39 % ID/g | 0.31 ± 0.11 % ID/g | 0.96 ± 0.4 % ID/g | 0.14 ± 0.01 % ID/g | 0.74 ± 0.72 % ID/g | 0.4 ± 0.26 % ID/g | 0.13 ± 0.12 % ID/g | 0.01 ± 0.01 % ID/g | 0.07 ± 0.01 % ID/g | 0.04 ± 0.02 % ID/g | 0.3 ± 0.14 % ID/g | 0.12 ± 0.05 % ID/g | % ID/g (72 h) Blood: 0.01 ± 0.00 % ID/g; % ID/g (72 h) Femur: 0.02 ± 0 % ID/g; % ID/g (72 h) Heart: 0.01 ± 0.01 % ID/g; % ID/g (72 h) Intestine: 0.04 ± 0.01 % ID/g; % ID/g (72 h) Kidney: 0.04 ± 0.01 % ID/g; % ID/g (72 h) Liver: 0.06 ± 0.02 % ID/g; % ID/g (72 h) Lung: 0.05 ± 0.03 % ID/g; % ID/g (72 h) Muscle: 0.011 ± 0.01 % ID/g; % ID/g (72 h) Pancreas: 0.01 ± 0 % ID/g; % ID/g (72 h) Spleen: 0.02 ± 0.01 % ID/g; % ID/g (4 h) Stomach: 1.88 ± 0.59 % ID/g; % ID/g (24 h) Stomach: 0.1 ± 0.07 % ID/g; % ID/g (72 h) Stomach: 0.04 ± 0.01 % ID/g; % ID/g (4 h) Tumor: 17.97 ± 11.04 % ID/g; % ID/g (24 h) Tumor: 12.27 ± 7.59 % ID/g; % ID/g (72 h) Tumor: 4.24 ± 2.71 % ID/g; ratio of tumor AUC verse normal organ AUC: significantly improved
3 | COc1cccc(OC)c1-c1cc(C(=O)NC2(C(=O)O)C3CC4CC(C3)CC2C4)nn1-c1ccc(N(C)CCCN(C)CCCN(C)C(=O)CN2CCN(CC(=O)[O-])CCN(CC(=O)[O-])CCN(CC(=O)[O-])CC2)cc1C(C)C.[177Lu+3] (stereo not drawn) [^177Lu-I-1] | 2.08 ± 0.14 % ID/g | 0.06 ± 0.02 % ID/g | 0.72 ± 0.05 % ID/g | 0.19 ± 0.09 % ID/g | 0.68 ± 0.5 % ID/g | 0.24 ± 0.1 % ID/g | 0.98 ± 0.2 % ID/g | 0.37 ± 0.07 % ID/g | 3.66 ± 2.51 % ID/g | 3.16 ± 1.81 % ID/g | 1.81 ± 0.43 % ID/g | 0.97 ± 0.45 % ID/g | 0.64 ± 0.1 % ID/g | 0.31 ± 10.1 % ID/g | 0.47 ± 0.25 % ID/g | 0.13 ± 0.05 % ID/g | 0.41 ± 0.28 % ID/g | 0.18 ± 0.09 % ID/g | 0.42 ± 0.16 % ID/g | 0.53 ± 0.25 % ID/g | tumor AUC over 72 hours compared to ^177Lu—C2: significantly higher tumor AUC; % ID/g (72 h) Blood: 0.04 ± 0.01 % ID/g; % ID/g (72 h) Femur: 0.15 ± 0.06 % ID/g; % ID/g (72 h) Heart: 0.18 ± 0.03 % ID/g; % ID/g (72 h) Intestine: 0.51 ± 0.1 % ID/g; % ID/g (72 h) Kidney: 1.3 ± 0.61 % ID/g; % ID/g (72 h) Liver: 1.06 ± 0.46 % ID/g; % ID/g (72 h) Lung: 0.33 ± 0.28 % ID/g; % ID/g (72 h) Muscle: 0.06 ± 0.01 % ID/g; % ID/g (72 h) Pancreas: 0.07 ± 0.04 % ID/g; % ID/g (72 h) Spleen: 0.24 ± 0.08 % ID/g; % ID/g (4 h) Stomach: 0.57 ± 0.16 % ID/g; % ID/g (24 h) Stomach: 0.28 ± 0.17 % ID/g; % ID/g (72 h) Stomach: 0.1 ± 0.02 % ID/g; % ID/g (4 h) Tumor: 6.93 ± 0.71 % ID/g; % ID/g (24 h) Tumor: 22.56 ± 1.81 % ID/g; % ID/g (72 h) Tumor: 7.23 ± 4.46 % ID/g; ratio of tumor AUC verse normal organ AUC: significantly improved
